This note sets out measurements from patent publication US12115178B2, “Acylated active agents and methods of their use for the treatment of autoimmune disorders” (Flagship Pioneering Innovations V, Inc., priority 2018, dated 2024).

In data set [1] the test system is naïve CD4+ T cells. The data set can be described thus: Human regulatory T cell differentiation assay. Type of data set: cell-based. The note with it: 6 days. The procedure: Peripheral blood mononuclear cells (PBMCs) from whole blood donated by health volunteers were separated by Ficoll-Paque gradient centrifugation and naïve CD4^+ T cells were subsequently isolated using magnet beads (EasySep™ Human Naïve CD4^+ T Cell Isolation Kit, Cambridge, MA). For regulatory T cell (Treg) differentiation assay, naïve CD4^+ T cells were cultured (1-10×10^4 cells) in CTS OpTmizer medium for 6 days and stimulated with 5 ng/ml TGF-β, 100 U/ml IL-2, and ImmunoCult™ Human […] T Cell Activator; Stemcell #10990) with/without our Compounds. Cell viability was determined using a viability dye (eBioscience Fixable Viability Dye eFluor 780: ThermoFisher 65-0865-14) at 1:500 dilution. The cells were gated for Treg, defined as Live, CD11c^−, CD14^−, CD19^−, CD8^−, CD4^+, CD3^+, CD25^+, FOXP3^+. Percent (%) Tregs were calculated as percentage of CD4^+, CD25^+, FOXP3^+ cells over total CD4 T cells. Statistical analysis was performed with GraphPad Prism Software Using One-Way ANOVA.

Data set [2] concerns neutrophil. The data set can be described thus: Neutrophil chemokine production assay. Type of data set: cell-based, human. As to conditions: 12 h. Here is the method: A volume 25 mL of human blood was layered over 15 mL of Histopaque®-1077 and centrifuged at 500 g, RT, for 30 min with no break applied to the centrifuge. The PBMC band and Histopaque®-1077 layer were removed leaving behind the bottom red layer which was mixed with 40 mL of 1× red blood cell (RBC) lysis buffer (Sigma-Aldrich) was and split into two 50 mL tubes. The volume for both fractions was brought to 50 mL with RBC lysis buffer, mixed by inversion, and then incubated at RT for 10 min. Solutions were centrifuged at 250 g, for 10 min at RT and the supernatant liquids removed. The reddish pellets were re-suspended in 1 mL of RBC lysis buffer and combined. The cell suspension was incubated for 5 min at RT in RBC lysis buffer. After incubation 45 mL of Hanks Balanced Salt Solution with no calcium, magnesium or phenol red (HBSS−) was added, the cell suspension was spun (250 g for 10 min at RT), and supernatant liquids were removed. The white pellet was re-suspended in 1 mL of HBSS−, and cell counts were determined. The neutrophil cell suspension was brought to a concentration of 1.11e6 cells/mL in RPMI complete (Sigma-Aldrich), and 180 μL of cell suspension was transferred to all wells within a sterile 96-well tissue culture treated plate resulting in 2.0e5 cells/well. […] After incubation, 10 μL of 2 μg/mL LPS solution in RPMI complete was added to each well except for control wells, which received an additional 10 μL of media. Cells were incubated for 12 h (37° C., 5% CO2), after which plates were centrifuged at 250 g, RT, for 5 min and supernatant liquids were obtained and stored at −80° C. until analyzed via Luminex® Multiplex Assay for various chemokines and cytokines. Three data points were acquired from two different blood donors and averaged.

Structures are written as SMILES.

As for `CC[C@H]1[C@@H](O)[C@@H]2[C@H](CC[C@]3(C)[C@@H]([C@H](C)CCC(=O)O)CC[C@@H]23)[C@@]2(C)CC[C@@H](O)C[C@@H]12` [Obeticholic acid], in data set [1] (100 uM), the “Cell viability % DMSO” value is “= (90%> <110%: =)”.
Turning to `CCC(=O)O` [Propionic acid], in data set [1] (3 mM), the “Cell viability % DMSO” value was “= (90%> <110%: =)”.
With `CN(CCOc1ccc(CC2SC(=O)NC2=O)cc1)c1ccccn1` (centres unmarked) [Rosiglitazone, rosiglitazone], the “Cell viability % DMSO” value was “= (90%> <110%: =)” in data set [1] (10 uM) and “− (<90%: −)” in data set [1] (100 uM).
Regarding `CC(O)CC(=O)[O-].[Na+]` (centres unmarked) [Sodium BHB], the “Cell viability % DMSO” value is given as “= (90%> <110%: =)” in data set [1] (2 mM) and “− (<90%: −)” in data set [1] (20 mM). Besides, the figures for the “Treg induction % DMSO” value in data set [1] (2 mM) and in data set [1] (20 mM) were “+ (110%> <130%: +)” and “= (90%> <110%: =)”, respectively.
For the compound `CCCC(=O)O` [butyrate], in data set [2] (500.0 μM), the “% IL-8 (Vehicle + LPS = 100%)” value was “++ (++ = <70%Vehicle)”, the “% MIP-1α (Vehicle + LPS = 100%)” value is “+++ (+++ = <50% Vehicle)” and the “% MIP-1β (DMSO + LPS = 100%)” value is “+++ (+++ = <50% Vehicle)”. In data set [2] (1000.0 μM), the “% IL-8 (Vehicle + LPS = 100%)” value was “++ (++ = <70%Vehicle)”, the “% MIP-1α (Vehicle + LPS = 100%)” value was “+++ (+++ = <50% Vehicle)” and the “% MIP-1β (DMSO + LPS = 100%)” value is listed as “+++ (+++ = <50% Vehicle)”.
